# Patent US20070043111A1, “Use of ifenprodril in the treatment of pain” (priority 2003, published 2007)
# What was measured:
# [1] = tested on: alpha-1 adrenergic receptor; details: Chenard et al., 1991; cited from earlier work
# [2] = tested on: intraplantar carrageenan-induced paw withdrawal latency; assay: intraplantar carrageenan-induced paw withdrawal latency in the rat; type: in vivo
# Protocol: More particularly, FIG. 1 is a graph showing the effect of (−) threo-ifenprodil when given intranasally or intraperitoneally at 10 and 30 mg/kg on the % change of pressure-induced paw withdrawal latency on the intraplantar carrageenan administered paw in the rat (250 g).
# FIG. 2 is a graph showing the effect of (−) threo-ifenprodil when given intravenously at 0.1 to 3 mg/kg on the % change of pressure-induced paw withdrawal latency on the intraplantar carrageenan administered paw in the rat.
smiles,measurement,setting,value
"CC(C(O)c1ccc(O)cc1)N1CCC(Cc2ccccc2)CC1 (centres unmarked) [Ifenprodil, 2-(4-benzylpiperidino)-1-(4-hydroxyphenyl)-1-propanol]",alpha-1 adrenergic receptor binding properties,[1],potent
"CC(C(O)c1ccc(O)cc1)N1CCC(Cc2ccccc2)CC1 (single isomer, unassigned; (-)) [(−) Threo-ifenprodil]",efficacy on pressure-induced paw withdrawal latency,"[2]; intravenous, 0.1, 0.3, 1 and 3 mg/kg, FIG. 2",excellent efficacy
CC(C(O)c1ccc(O)cc1)N1CCC(Cc2ccccc2)CC1 (racemic) [erythro racemate of ifenprodil],intranasal route compared with intraperitoneal route,[2]; FIG. 1,at least equivalent if not superior to the intraperitoneal route
same,analgesic effect on pressure-induced paw withdrawal latency,"[2]; intranasal, 2.5 mg/rat and 7.5 mg/rat, FIG. 1",markedly analgesic
same,analgesic effect on pressure-induced paw withdrawal latency,"[2]; intraperitoneal, 10 mg/kg and 30 mg/kg, FIG. 1",markedly analgesic
